pEC50, pIC50, pKi: −log10 of the molar value. Read-outs that look alike come from different tables or passages of the source.

Consider 20 molecules from patent US11498896B2 (The Broad Institute, Inc., priority 2014, dated 2022).

The target in test [1] is T1, human D2R/β-arrestin (Homo sapiens (Human), UniProt P14416). As to the kind of experiment: β-arrestin agonist assay (PathHunter). The test is classed as cell-based. To be noted: CHO-K1 cells expressing human D2R/β-arrestin; agonist mode. How it is done:
The detection reagent (9.6 μL, Buffer:Emerald II:Galactor-Star in a 19:5:1 ratio, i.e., 14.06 mL:3.7 mL:0.74 mL=18.5 mL) was then added to the agonist plates.

Test [2] concerns the target T1, human D2R/β-arrestin. As to the kind of experiment: Gi/cAMP agonist assay (Lance Ultra cAMP, forskolin). The test is classed as cell-based. The settings on record: CHO-K1 cells expressing human D2R/β-arrestin; agonist mode, 2.5 μM forskolin. How it is done:
Eu-cAMP tracer solution (10 μl, PerkinElmer, 360 μl of Tracer in 17.64 ml kit buffer) and ULight-anti-cAMP solution (10 μl, 120 μL antibody in 17.88 ml kit buffer) was then added to each well.

For test [3], the target named is T1, human D2R/β-arrestin. As to the kind of experiment: cell-based. To be noted: cAMP Antagonist.
The target in a further test is D2 receptor (Homo sapiens (Human), UniProt P14416). As to the kind of experiment: D2 radioligand binding assay.
For test [4], the target named is T1, human D2R/β-arrestin. To be noted: CHO-K1 cells expressing human D2R/β-arrestin, antagonist mode, quinpirole 130 nM; for pIC50: read-out: β-arrestin Antagonist.
For test [5], the target named is T1, human D2R/β-arrestin. The settings on record: read-out: cAMP Antagonist; CHO-K1 cells expressing human D2R/β-arrestin; antagonist mode, 2.5 μM forskolin and 2.7 nM quinpirole.
Test [6] has as its target T1, human D2R/β-arrestin. The experiment in a line: cell-based. The settings on record: β-arrestin Antagonist.
Where [7] appears, read: CHO-K1 cells expressing human D2R/β-arrestin, antagonist mode, 2.5 μM forskolin and 2.7 nM quinpirole.
Setting [8] is: CHO-K1 cells expressing human D2R/β-arrestin, antagonist mode, quinpirole 130 nM.

Sequence of D2 receptor (P14416 whole entry): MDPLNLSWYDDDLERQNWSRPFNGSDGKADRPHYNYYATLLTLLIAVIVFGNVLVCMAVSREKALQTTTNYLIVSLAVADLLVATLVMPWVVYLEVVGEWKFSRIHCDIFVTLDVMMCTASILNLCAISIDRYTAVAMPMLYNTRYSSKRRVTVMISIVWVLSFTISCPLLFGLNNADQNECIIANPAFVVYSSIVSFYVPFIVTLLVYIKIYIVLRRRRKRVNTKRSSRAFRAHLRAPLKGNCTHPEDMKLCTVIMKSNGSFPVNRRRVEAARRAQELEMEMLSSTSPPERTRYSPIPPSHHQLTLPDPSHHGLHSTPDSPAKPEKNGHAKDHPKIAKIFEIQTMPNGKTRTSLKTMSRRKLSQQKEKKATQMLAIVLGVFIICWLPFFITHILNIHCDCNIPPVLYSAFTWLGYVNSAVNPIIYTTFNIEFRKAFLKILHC
T1 sequence (P14416 whole entry): as above

One may read the pEC50 as the negative decadic logarithm of the EC50, by convention in mol/L. As usually defined, the pKi is the Ki on a negative log10 scale, so that one unit is a factor of ten. With `CC1(C(=O)Nc2ccccc2)CCN(CC2COc3ccccc3O2)CC1` (single isomer, unassigned) [Compound 204b, 1-((2,3-dihydrobenzo[b][1,4]dioxin-2-yl)methyl)-4-methyl-N-phenylpiperidine-4-carboxamide], the pEC50 is less than 4.52 on human D2R/β-arrestin [1] and greater than 7.00 on human D2R/β-arrestin [2]. Besides, the pIC50 at human D2R/β-arrestin [3] (setting [7]) was 6.00 to 7.00; at human D2R/β-arrestin [4], 5.00 to 6.00. This molecule had a pKi on D2 receptor of 6.00 to 7.00.
As to `CC1(Oc2ccc(Cl)cc2)CCN(CCOc2ccc3ncsc3c2)C1` (stereo not shown) [Compound 18b], the pIC50 was less than 4.52 on human D2R/β-arrestin [5] and 5.00 to 6.00 at human D2R/β-arrestin [4]. For the same molecule, the pEC50 was less than 4.52 at human D2R/β-arrestin [1] and 6.00 to 7.00 at human D2R/β-arrestin [2]. The pKi at D2 receptor was 5.00 to 6.00.
Turning to `CC(=O)NC1(C)CCN(C[C@H]2COc3ccc(Br)cc3O2)CC1` [Compound 211, (S)—N-(1-((7-bromo-2,3-dihydrobenzo[b][1,4]dioxin-2-yl)methyl)-4-methylpiperidin-4-yl)acetamide], the pEC50 at human D2R/β-arrestin [1] and at human D2R/β-arrestin [2] was less than 4.52 each time. Further, the pIC50 on human D2R/β-arrestin [3] (setting [7]) and on human D2R/β-arrestin [6] (setting [8]) was greater than 7.00 in each case. On D2 receptor, this molecule showed a pKi greater than 7.00.
Regarding `CC1(Oc2ccc(C(F)(F)F)cc2)CCN(CCOc2ccccc2)C1` (stereo not shown) [Example 54, 3-methyl-1-(2-phenoxyethyl)-3-(4-(trifluoromethyl)phenoxy)pyrrolidine], the pEC50 at human D2R/β-arrestin [1] is less than 4.52; at human D2R/β-arrestin [2], 6.00 to 7.00. Further, the pIC50 was 4.52 to 5.00 at human D2R/β-arrestin [3] (setting [7]) and 5.00 to 6.00 against human D2R/β-arrestin [6] (setting [8]). This molecule gave a negative logarithm of the Ki (pKi) at D2 receptor of 5.00 to 6.00.
Take `CC1(Oc2cccc(C(F)(F)F)c2)CCN(CCOc2ccccc2)C1` (stereo not shown) [Example 55, 3-methyl-1-(2-phenoxyethyl)-3-(3-(trifluoromethyl)phenoxy)pyrrolidine]: the pEC50 is less than 4.52 on human D2R/β-arrestin [1] and greater than 7.00 at human D2R/β-arrestin [2]. In addition, the figures for the pIC50 at human D2R/β-arrestin [3] (setting [7]) and on human D2R/β-arrestin [6] (setting [8]) were less than 4.52 and 5.00 to 6.00, respectively. The same molecule gave a pKi at D2 receptor of 5.00 to 6.00.
Consider `CC1(Oc2ccncc2)CCN(CCOc2ccccc2)C1` (stereo not shown) [Example 59, 4-((3-methyl-1-(2-phenoxyethyl)pyrrolidin-3-yl)oxy)pyridine], for which the values for the pEC50 at human D2R/β-arrestin [1] and on human D2R/β-arrestin [2] were 4.52 to 5.00 and greater than 7.00, respectively. Besides, the pIC50 against human D2R/β-arrestin [3] (setting [7]) and on human D2R/β-arrestin [6] (setting [8]) was less than 4.52 each time. At D2 receptor, this molecule had a pKi of 5.00 to 6.00.
In the case of `CC1(Oc2ccncc2)CCN(CCOc2ccccc2)C1` (stereo not shown) [Example 59b], the pIC50 at human D2R/β-arrestin [5] and at human D2R/β-arrestin [4] was less than 4.52 in each case. In addition, the pEC50 at human D2R/β-arrestin [1] was 5.00 to 6.00; on human D2R/β-arrestin [2], greater than 7.00. Moreover, at D2 receptor, the pKi was 4.52 to 5.00.
On to `CC1(Oc2ccccc2)CCN(CCOc2ccc(C(F)(F)F)cc2)CC1` [Example 68], for which the pEC50 is less than 4.52 on human D2R/β-arrestin [1] and greater than 7.00 on human D2R/β-arrestin [2]. In addition, the pIC50 on human D2R/β-arrestin [3] (setting [7]) and on human D2R/β-arrestin [6] (setting [8]) was less than 4.52 in each case. The same molecule had a pKi at D2 receptor of 6.00 to 7.00.
Consider `CC1(Oc2ccccc2)CC2CCC(C1)N2CCOc1ccccc1C(F)(F)F` (stereo not shown) [Example 78, 3-Methyl-3-phenoxy-8-(2-(2-(trifluoromethyl)phenoxy)ethyl)-8-azabicyclo[3.2.1]octane], for which the results for the pEC50 on human D2R/β-arrestin [1] and at human D2R/β-arrestin [2] were less than 4.52 and 4.52 to 5.00, respectively. For the same molecule, the pIC50 was 5.00 to 6.00 against human D2R/β-arrestin [3] and 6.00 to 7.00 on human D2R/β-arrestin [6]. At D2 receptor, this molecule showed a pKi of 6.00 to 7.00.
As for `CC1(Oc2ccc(Cl)cc2)CCN(CCOc2ccccc2F)CC1` [Example 86, 4-(4-chlorophenoxy)-1-(2-(2-fluorophenoxy)ethyl)-4-methylpiperidine], the pEC50 at human D2R/β-arrestin [1] and on human D2R/β-arrestin [2] was greater than 7.00 in each case. For the same molecule, the pIC50 against human D2R/β-arrestin [3] (setting [7]) and against human D2R/β-arrestin [6] (setting [8]) was less than 4.52 in each case. At D2 receptor, this molecule showed a pKi greater than 7.00.
As for `CC1(Oc2ccccc2)CCN(CCOc2ccccc2C(F)(F)F)CC1` [Example 91, 4-methyl-4-phenoxy-1-(2-(2-(trifluoromethyl)phenoxy)ethyl)piperidine], the pEC50 is less than 4.52 on human D2R/β-arrestin [1] and greater than 7.00 at human D2R/β-arrestin [2]. The figures for the pIC50 against human D2R/β-arrestin [3] (setting [7]) and at human D2R/β-arrestin [6] (setting [8]) were less than 4.52 and greater than 7.00, respectively. The molecule also gave a pKi at D2 receptor of 6.00 to 7.00.
Turning to `CC1(Oc2ccc(Cl)cc2)CCCN(CCOc2ccccc2)C1` (stereo not shown) [Example 96, 3-(4-chlorophenoxy)-3-methyl-1-(2-phenoxyethyl)piperidine], the pEC50 on human D2R/β-arrestin [1] and on human D2R/β-arrestin [2] was less than 4.52 throughout. Moreover, the pIC50 was greater than 7.00 on human D2R/β-arrestin [3] (setting [7]) and 6.00 to 7.00 against human D2R/β-arrestin [6] (setting [8]). At D2 receptor, this molecule had a pKi of 6.00 to 7.00.
Consider `CC1(Oc2ccc(Cl)cc2)CCCN(CCOc2ccccc2F)C1` (stereo not shown) [Example 98a], for which the pIC50 on human D2R/β-arrestin [5] and at human D2R/β-arrestin [4] was greater than 7.00 throughout. For the same molecule, the pEC50 on human D2R/β-arrestin [1] and at human D2R/β-arrestin [2] was less than 4.52 in each case. On D2 receptor, this molecule had a pKi greater than 7.00.
Turning to `CC1(Oc2ccc(Cl)cc2)CCCN(CCOc2ccc3scnc3c2)C1` (stereo not shown) [Example 99, 5-(2-(3-(4-chlorophenoxy)-3-methylpiperidin-1-yl)ethoxy)benzo[d]thiazole], the pEC50 on human D2R/β-arrestin [1] and on human D2R/β-arrestin [2] was less than 4.52 in each case. Moreover, the figures for the pIC50 against human D2R/β-arrestin [3] (setting [7]) and against human D2R/β-arrestin [6] (setting [8]) were greater than 7.00 and 6.00 to 7.00, respectively. Also, the pKi at D2 receptor was 6.00 to 7.00.
As to `FC(F)(F)c1ccccc1OCCN1CCC2(CC1)CC2c1ccccc1` (stereo not shown) [Example 102a], the pIC50 on human D2R/β-arrestin [5] was less than 4.52; on human D2R/β-arrestin [4] it was 6.00 to 7.00. The pEC50 on human D2R/β-arrestin [1] is less than 4.52; on human D2R/β-arrestin [2], greater than 7.00. The pKi at D2 receptor is 6.00 to 7.00.
On to `CC1(C(=O)c2ccccc2)CCN(CCOc2ccccc2C(F)(F)F)CC1` [Example 106, (4-Methyl-1-(2-(2-(trifluoromethyl)phenoxy)ethyl)piperidin-4-yl) (phenyl)methanone], for which the pEC50 on human D2R/β-arrestin [1] and at human D2R/β-arrestin [2] was less than 4.52 each time. In addition, the values for the pIC50 against human D2R/β-arrestin [3] (setting [7]) and at human D2R/β-arrestin [6] (setting [8]) were greater than 7.00 and 6.00 to 7.00, respectively. This molecule also showed a pKi at D2 receptor greater than 7.00.
Regarding `CC1(Oc2ccccc2)CCN(CCOc2ccccc2OC(F)(F)F)CC1` [Example 110, 4-methyl-4-phenoxy-1-(2-(2-(trifluoromethoxy)phenoxy)ethyl) piperidine], the pEC50 is less than 4.52 at human D2R/β-arrestin [1] and greater than 7.00 at human D2R/β-arrestin [2]. Moreover, the pIC50 against human D2R/β-arrestin [3] (setting [7]) was less than 4.52; against human D2R/β-arrestin [6] (setting [8]), 6.00 to 7.00. Also, the pKi on D2 receptor was greater than 7.00.
Consider `CN(c1ccccc1)C1(C)CCN(CCOc2ccccc2C(F)(F)F)CC1` [Example 112], for which the values for the negative-log EC50 (pEC50) at human D2R/β-arrestin [1] and on human D2R/β-arrestin [2] were less than 4.52 and 6.00 to 7.00, respectively. Further, the pIC50 was less than 4.52 against human D2R/β-arrestin [3] and 6.00 to 7.00 at human D2R/β-arrestin [6]. The pKi on D2 receptor was 6.00 to 7.00.
For `O=C1CCc2ccc(OCCCCN3CCCN(c4cccc(Cl)c4Cl)CC3)nc2N1` [UNC9975, reference compound], the “cAMP Agonist” value at human D2R/β-arrestin [2] is reported as “B or A”. Further, the “β-arrestin Antagonist” value on human D2R/β-arrestin [4] is listed as “B or A”.
As to `Clc1cccc(C2CCN(CCCOc3ccc4scnc4c3)CC2)c1Cl` [UNC9994, reference compound], on human D2R/β-arrestin [1], the “β-arrestin Agonist” value was “B or C”. At human D2R/β-arrestin [4], the “β-arrestin Antagonist” value is listed as “B or C”.
